“Also recorded” adds a separate entry of the source. Where a name gives a salt, the structure may show the parent alone. Read-outs that look alike come from different tables or passages of the source.

The test system of series [1] is advanced HCC. The conditions noted are these: Phase 3 SHARP sorafenib trial; cited from earlier work.
The test system of series [2] is advanced HCC. The conditions noted are these: Phase 3 Asia-Pacific sorafenib trial; cited from earlier work.
Series [3] has as its system SACT-naive Asian patients with aHCC with MET overexpression. Kind of series: Phase 2 safety (adverse events, NCI-CTCAE v4.0). The conditions noted are these: for treatment-related AEs: ALT increased / treatment-related AEs: AST increased / treatment-related AEs: Alopecia / treatment-related AEs: Blood bilirubin increased / treatment-related AEs: Blood creatinine increased / treatment-related AEs: Diarrhoea / treatment-related AEs: Fatigue / treatment-related AEs: Hypertension / treatment-related AEs: Hypoalbuminaemia / treatment-related AEs: Oedema peripheral / treatment-related AEs: Overall / treatment-related AEs: PPES: Phase 2, safety analysis set. The method, then: (§1) Patients in both phases continued to receive allocated therapy until disease progression, intolerable toxicity or withdrawal of consent.
DLTs are defined in Supplementary Table 3.
(§2) In Phase 2, analyses were conducted according to randomised treatment assignment. […] In total, 100 TTP events were required to ensure 80% power (with a two-sided significance level of 10%) for rejecting the null hypothesis of equal treatment effect between treatment arms, assuming a true hazard ratio (HR) of 0.6. […] For the primary and secondary time-to-event endpoints, treatment groups were compared in the mITT population, applying a two-sided log-rank test, stratified by BCLC stage (α = 10%).

Series [4] deals with advanced HCC with MET overexpression. Kind of series: Phase 2 randomised efficacy, tepotinib vs sorafenib (TTP, PFS, OS, response; RECIST v1.1). It is filed as in vivo, human. The conditions noted are these: Phase 2, mITT.
Excerpt: as §1
(§3) In Phase 2, the primary endpoint was independent review committee (IRC)-assessed time to progression (TTP) per Response Evaluation Criteria in Solid Tumors (RECIST) v1.1. Secondary endpoints included investigator-assessed TTP, IRC- and investigator-assessed progression-free survival (PFS), objective response rate (ORR), disease control rate, OS and safety. In both phases, tumour assessments were performed according to RECIST v1.1 based on scans taken at the end of every second cycle until Cycle 13, and every four cycles thereafter.
as §2

A short description of series [5]: Phase 1b pharmacokinetics, Cycle 1 Day 15. It is filed as in vivo, human. The conditions noted are these: for AUC / Cmax: human, in vivo, oral, Cycle 1 Day 15, geometric mean.
Procedure: Secondary endpoints in Phase 1b included efficacy measures and pharmacokinetic parameters, such as Cmax and area under the concentration–time curve over the dosing interval at steady state (AUCτ,ss), which were evaluated at Cycle 1, Day 15.
In series [6] the test system is advanced HCC. Briefly: Phase 1b tumour response per RECIST v1.1. It is filed as in vivo, human. The conditions noted are these: for duration of partial response: one patient. The method, then:
as §3

The conditions of series [7]: patients with moderate hepatic impairment (Child–Pugh B); cited from earlier work.
For series [8], the system named is Asian patients with advanced HCC. Kind of series: Phase 1b dose escalation: DLTs and adverse events.
Procedure: This was an open-label, multicentre, integrated, Phase 1b/2 trial conducted in Asian patients with advanced HCC (NCT01988493). […] Phase 1b was conducted at eight sites and Phase 2 at 43 sites in mainland China, South Korea and Taiwan.
Once three patients had completed one cycle at 500 mg, nine further patients were to be enrolled at this dose level to confirm the RP2D. […] The Safety Monitoring Committee (SMC) could also recommend enrolment of additional patients at or above the RP2D.
In Phase 1b, the primary endpoint was the incidence of investigator-assessed DLTs occurring in Cycle 1, as well as the incidence of other AEs (graded according to the National Cancer Institute Common Terminology and Criteria for Adverse Events, v4.0). […] Secondary endpoints in Phase 1b included efficacy measures and pharmacokinetic parameters, such as Cmax and area under the concentration–time curve over the dosing interval at steady state (AUCτ,ss), which were evaluated at Cycle 1, Day 15.
A further series deals with MET. More on the design: method as in PMID 28862760. The conditions noted are these: cited from earlier work.
Another series concerns HCC with MET alterations. Also on record: method as in PMID 31853265. The conditions noted are these: 30 patients with HCC with MET alterations, first-line; cited from earlier work.
Setting [9] is: Phase 1b, 500 mg dose, comparator ref 13.
[10] abbreviates: Phase 1b, across all dose cohorts.

Take `CNC(=O)c1cc(Oc2ccc(NC(=O)Nc3ccc(Cl)c(C(F)(F)F)c3)cc2)ccn1` [Sorafenib, sorafenib]: in the series on advanced HCC [1], the “median TTP” value is on record as 5.5 months. Also, the “median TTP” value in the series with advanced HCC [2] is reported as 2.8 months. Further, in series [3] (Phase 2), the “aspartate transaminase increase, any cause” value is listed as 36.4%; the deaths deemed treatment-related entry is “neither were deemed treatment-related”; the “decreased appetite, any cause” value turned out to be 40.9%; the “diarrhoea, any cause” value is on record as 38.6%. Further, in series [3] (Phase 2), the “palmar–plantar erythrodysesthesia, any cause” value was determined as 61.4%; the “patients who died due to AEs while on treatment” value was “Two”; the “patients with AEs of any cause” value is 97.7%; the “patients with Grade ≥3 AEs of any cause” value turned out to be 70.5%. The “permanent treatment discontinuation due to AEs of any cause” value in [3] (Phase 2) was determined as 13.6%. In addition, in series [3] (Phase 2, any grade), the treatment-related diarrhoea was determined as 31.8% and the “treatment-related palmar–plantar erythrodysesthesia” value is given as 61.4%. For the same molecule, in series [3] (Any grade), the “treatment-related AEs: ALT increased” value is listed as 7 (15.9) n (%), the “treatment-related AEs: AST increased” value was 10 (22.7) n (%), the “treatment-related AEs: Alopecia” value was 10 (22.7) n (%) and the “treatment-related AEs: Blood bilirubin increased” value is on record as 8 (18.2) n (%). In series [3] (Any grade), the “treatment-related AEs: Blood creatinine increased” value is listed as 0 (0.0) n (%), the “treatment-related AEs: Diarrhoea” value is on record as 14 (31.8) n (%), the “treatment-related AEs: Fatigue” value is reported as 11 (25.0) n (%) and the “treatment-related AEs: Hypertension” value is listed as 11 (25.0) n (%). For the same molecule, in [3] (Any grade), the “treatment-related AEs: Hypoalbuminaemia” value is given as 2 (4.5) n (%), the “treatment-related AEs: Oedema peripheral” value was 0 (0.0) n (%), the “treatment-related AEs: Overall” value is listed as 43 (97.7) n (%) and the “treatment-related AEs: PPES” value is 27 (61.4) n (%). Also, in [3] (Grade ≥ 3), the “treatment-related AEs: ALT increased” value is 0 (0.0) n (%), the “treatment-related AEs: AST increased” value is 3 (6.8) n (%), the “treatment-related AEs: Alopecia” value is on record as 0 (0.0) n (%) and the “treatment-related AEs: Blood bilirubin increased” value is 2 (4.5) n (%). Also, in series [3] (Grade ≥ 3), the “treatment-related AEs: Blood creatinine increased” value is recorded as 0 (0.0) n (%), the “treatment-related AEs: Diarrhoea” value is on record as 3 (6.8) n (%), the “treatment-related AEs: Fatigue” value was 0 (0.0) n (%) and the “treatment-related AEs: Hypertension” value was 6 (13.6) n (%). Moreover, in series [3] (Grade ≥ 3), the “treatment-related AEs: Hypoalbuminaemia” value is on record as 0 (0.0) n (%), the “treatment-related AEs: Oedema peripheral” value is 0 (0.0) n (%), the “treatment-related AEs: Overall” value was 20 (45.5) n (%) and the “treatment-related AEs: PPES” value is on record as 3 (6.8) n (%). In series [3] (Phase 2, text), the “treatment-related AEs, Grade ≥3, overall” value is recorded as 45.5% and the “treatment-related AEs, any grade, overall” value came out at 97.7%. Besides, in [4], the “ORR by IRC” value amounted to 0%, the “median OS” value was determined as 8.6 months, the “median PFS assessed by IRC” value stood at 1.4 months and the “median investigator-assessed PFS” value is listed as 2.8 months. In [4], the “median investigator-assessed TTP” value was 2.8 months. Besides, in [4] (IRC), the “Best overall response: Complete response” value is recorded as 0 (0.0), the “Best overall response: Non-complete response/non-partial response” value was 0 (0.0), the “Best overall response: Partial response” value is 0 (0.0) and the “Best overall response: Progressive disease” value is 25 (67.6). Further, in series [4] (IRC), the “Best overall response: Stable disease” value is on record as 8 (21.6), the Objective response rate is on record as 0 (0.0) n (%), the disease control is 21.6% and the disease control rate was 8 (21.6) n (%). Also, the “median IRC-assessed time to progression (TTP)” value in series [4] (tepotinib 500 mg QD, sorafenib 400 mg twice daily) is 1.4 months.

What is called AUC is the area under the concentration-time curve, a measure of exposure. High values mean more exposure, low ones less exposure. One may read the Cmax as the peak of the concentration-time curve. For the molecule `CN1CCC(COc2cnc(-c3cccc(Cn4nc(-c5cccc(C#N)c5)ccc4=O)c3)nc2)CC1` [Tepotinib, tepotinib hydrochloride hydrate], in series [5] (setting [9]), the “AUCτ as percentage of that observed in the first-in-human trial” value came to 61% and the “Cmax as percentage of that observed in the first-in-human trial” value turned out to be 63%. For the same molecule, in series [5] (1000 mg, Phase 1b, 1,000 mg QD), the AUC turned out to be 28600 ng·h/mL and the Cmax was 1370 ng/mL. In series [5] (Phase 1b, 300 mg QD), the AUC came out at 11800 ng·h/mL and the Cmax came to 585 ng/mL. In series [5] (Phase 1b, 500 mg QD), this molecule showed an AUC of 16700 ng·h/mL and a Cmax of 815 ng/mL. Further, in the series on advanced HCC [6] (Phase 1b, 300 mg cohort), the “best overall response of progressive disease” value is on record as 85.7%, the “best overall response of stable disease” value is 14.3% and the disease control rate is 14.3%. In the series on advanced HCC [6] (Phase 1b, 500 mg cohort), the “best overall response of progressive disease” value is listed as 35.7%, the “best overall response of stable disease” value amounted to 42.9%, the “objective response rate (ORR)” value was determined as 7.1% and the “duration of partial response” value worked out at 19 months. Also, in the series on advanced HCC [6] (Phase 1b, 1,000 mg cohort), the “best overall response of progressive disease” value came to 50.0%, the “best overall response of stable disease” value was found to be 33.3%, the “objective response rate (ORR)” value is recorded as 16.7% and the “duration of partial response” value stood at 4.4 months. Besides, in series [7], the “lower AUC from time 0 to infinity versus control subjects without hepatic impairment” value was 12% and the “lower Cmax versus control subjects without hepatic impairment” value is 29%. For the same molecule, in [8] (Phase 1b, 300, 500 or 1,000 mg QD, Cycle 1), the “dose-limiting toxicities (DLTs)” value is reported as “no DLTs occurred; also recorded: No DLTs were observed; also recorded: no DLTs were reported”. Moreover, in series [8] (setting [10]), the “treatment-related AEs, Grade ≥3” value was 33.3% and the “treatment-related AEs, any grade” value is on record as 81.5%. Further, in series [8] (Phase 1b, n = 27), the “patients with AEs of any cause” value is given as “All patients”.

With `COc1cc2nccc(Oc3ccc(NC(=O)C4(C(=O)Nc5ccc(F)cc5)CC4)cc3)c2cc1OC` [cabozantinib], the “in vitro IC50 for MET inhibition” value with MET is listed as “low nanomolar range”.

Turning to `CNC(=O)c1ccc(-c2cnc3ncc(Cc4ccc5ncccc5c4)n3n2)cc1F` [capmatinib], in the series on HCC with MET alterations, the ORR is 10%.

As for `O=C1NC(=O)[C@@H](c2cn3c4c(cccc24)CCC3)[C@@H]1c1c[nH]c2ccccc12` [tivantinib], in the series with MET (relative to tepotinib, cabozantinib and capmatinib), the “affinity for the MET receptor” value is “lower affinity for the receptor”.

Source of the values: article PMC8292411 (British Journal of Cancer, 2021).
